Measurements published in US9540366B2, “Ring-fused heterocyclic compound” (Kyowa Hakko Kirin Co., Ltd., priority 2012, dated 2017).
Structures can show the parent of a compound that is named as a salt. Where two headings read alike, the source gives them in different places.

Target: T1, human Cav3.2 T-type Ca2+ channel (Homo sapiens, UniProt O95180)
T1 construct: expressed in transfected cells; host or cells: KJMGER8 cells (Namalwa cell-derived cell line)
Assay: Inhibitory effect for intracellular calcium response via Cav3.2 T-type Ca2+ channels (FLIPR Calcium 3 Assay Kit)
Type: cell-based

[1] = human Cav3.2-expressing KJMGER8 cells (Namalwa-derived), calcium response induced by 5 mmol/L CaCl2, 3 μmol/L mibefradil as reference, read-out: IC50 for the human Cav3.2 T-type Ca2+ current

T1 sequence (O95180 whole entry): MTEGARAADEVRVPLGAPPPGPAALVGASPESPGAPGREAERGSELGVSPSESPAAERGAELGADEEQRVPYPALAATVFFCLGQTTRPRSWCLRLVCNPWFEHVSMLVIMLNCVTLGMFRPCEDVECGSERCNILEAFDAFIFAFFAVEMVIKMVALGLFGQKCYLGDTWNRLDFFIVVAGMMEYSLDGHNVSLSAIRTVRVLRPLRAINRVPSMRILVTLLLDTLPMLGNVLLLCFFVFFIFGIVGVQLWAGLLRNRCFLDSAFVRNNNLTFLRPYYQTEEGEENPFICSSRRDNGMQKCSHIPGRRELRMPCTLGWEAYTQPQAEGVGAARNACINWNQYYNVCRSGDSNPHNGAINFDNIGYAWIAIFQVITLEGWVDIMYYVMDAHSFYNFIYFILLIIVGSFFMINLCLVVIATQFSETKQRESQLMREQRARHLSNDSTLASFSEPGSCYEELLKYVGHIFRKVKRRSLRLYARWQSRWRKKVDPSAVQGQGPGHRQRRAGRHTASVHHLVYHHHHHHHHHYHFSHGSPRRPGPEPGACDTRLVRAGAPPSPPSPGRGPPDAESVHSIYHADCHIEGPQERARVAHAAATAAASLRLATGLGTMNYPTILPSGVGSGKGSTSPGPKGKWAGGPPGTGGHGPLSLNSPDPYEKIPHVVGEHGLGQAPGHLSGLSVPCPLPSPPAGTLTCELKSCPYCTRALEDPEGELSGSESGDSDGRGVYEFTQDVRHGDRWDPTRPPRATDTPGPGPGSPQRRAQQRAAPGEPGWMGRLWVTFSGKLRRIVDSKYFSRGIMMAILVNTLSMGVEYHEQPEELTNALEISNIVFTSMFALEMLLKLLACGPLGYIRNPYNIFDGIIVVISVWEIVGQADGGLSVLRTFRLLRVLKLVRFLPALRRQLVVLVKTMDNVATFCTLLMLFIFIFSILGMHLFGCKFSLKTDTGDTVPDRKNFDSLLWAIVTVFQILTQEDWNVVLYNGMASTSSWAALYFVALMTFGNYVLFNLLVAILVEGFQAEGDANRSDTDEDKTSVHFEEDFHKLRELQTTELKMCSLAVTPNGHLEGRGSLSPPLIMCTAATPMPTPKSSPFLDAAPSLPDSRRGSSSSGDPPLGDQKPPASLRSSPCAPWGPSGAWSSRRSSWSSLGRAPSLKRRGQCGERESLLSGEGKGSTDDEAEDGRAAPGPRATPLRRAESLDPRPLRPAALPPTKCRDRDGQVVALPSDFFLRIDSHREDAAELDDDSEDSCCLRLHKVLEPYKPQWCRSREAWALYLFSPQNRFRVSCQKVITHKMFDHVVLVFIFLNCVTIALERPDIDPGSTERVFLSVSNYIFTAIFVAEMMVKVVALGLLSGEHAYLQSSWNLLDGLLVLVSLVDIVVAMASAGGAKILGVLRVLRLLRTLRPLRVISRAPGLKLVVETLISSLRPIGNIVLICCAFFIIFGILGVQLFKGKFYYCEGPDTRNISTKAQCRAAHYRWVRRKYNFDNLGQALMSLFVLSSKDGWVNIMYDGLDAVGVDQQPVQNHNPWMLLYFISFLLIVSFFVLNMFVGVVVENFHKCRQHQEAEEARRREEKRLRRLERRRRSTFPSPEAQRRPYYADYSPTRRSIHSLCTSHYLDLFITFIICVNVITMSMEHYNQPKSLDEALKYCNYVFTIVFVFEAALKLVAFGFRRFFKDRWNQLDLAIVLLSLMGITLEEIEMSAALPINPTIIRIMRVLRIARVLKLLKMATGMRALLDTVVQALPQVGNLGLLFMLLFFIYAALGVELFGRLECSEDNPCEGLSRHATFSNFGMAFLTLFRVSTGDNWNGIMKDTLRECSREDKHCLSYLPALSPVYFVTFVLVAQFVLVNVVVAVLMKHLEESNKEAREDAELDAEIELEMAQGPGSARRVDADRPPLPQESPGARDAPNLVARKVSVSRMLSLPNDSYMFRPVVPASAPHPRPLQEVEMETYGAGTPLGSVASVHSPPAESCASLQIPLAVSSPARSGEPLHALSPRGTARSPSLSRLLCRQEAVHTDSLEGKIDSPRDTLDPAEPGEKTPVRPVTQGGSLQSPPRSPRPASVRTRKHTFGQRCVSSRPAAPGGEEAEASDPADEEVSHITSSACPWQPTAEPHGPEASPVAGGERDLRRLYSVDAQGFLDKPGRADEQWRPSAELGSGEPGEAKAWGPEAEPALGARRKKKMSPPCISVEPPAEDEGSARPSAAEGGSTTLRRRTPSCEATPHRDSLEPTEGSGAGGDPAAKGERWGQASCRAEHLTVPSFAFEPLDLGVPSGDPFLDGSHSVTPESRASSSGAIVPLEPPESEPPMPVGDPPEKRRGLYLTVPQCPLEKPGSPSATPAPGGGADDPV

N#Cc1cc(C(=O)NC2CC3(COC3)C2)cc2nc(C(F)(F)F)c(CC3CCC(F)(F)CC3)n12 [Compound 146, 5-Cyano-3-[(4,4-difluorocyclohexyl)methyl]-N-(2-oxaspiro[3.3]heptan-6-yl)-2-(trifluoromethyl)imidazo[1,2-a]pyridine-7-carboxamide]
IC50 [1]: ≤ 100 nM

CC(F)(F)c1nc2cc(C(=O)NC3CC4(COC4)C3)c(Cl)cn2c1CC1CCC(F)(F)CC1 [Compound 147, 6-Chloro-3-[(4,4-difluorocyclohexyl)methyl]-2-(1,1-difluoroethyl)-N-(2-oxaspiro[3.3]heptan-6-yl)imidazo[1,2-a]pyridine-7-carboxamide]
IC50: ≤ 100 nM

CC(C)(C)c1nc2cc(C(=O)NC3CC4(COC4)C3)c(Cl)cn2c1CC1CCC(F)(F)CC1 [Compound 148, 2-tert-Butyl-6-chloro-3-[(4,4-difluorocyclohexyl)methyl]-N-(2-oxaspiro[3.3]heptane-6-yl)imidazo[1,2-a]pyridine-7-carboxamide]
IC50: ≤ 100 nM

N#Cc1cc(C(=O)NCCCN2CCCC2=O)cc2nc(C(F)(F)F)c(CC3CCC(F)(F)CC3)n12 [Compound 149, 5-Cyano-3-[(4,4-difluorocyclohexyl)methyl]-N-[3-(2-oxopyrrolidin-1-yl)propyl]-2-(trifluoromethyl)imidazo[1,2-a]pyridine-7-carboxamide]
IC50 [1]: ≤ 100 nM

N#Cc1cc(C(=O)N2CCOC2=O)cc2nc(C(F)(F)F)c(CC3CCC(F)(F)CC3)n12 [Compound 150, 3-[(4,4-Difluorocyclohexyl)methyl]-7-(2-oxoxazolidine-3-carbonyl)-2-(trifluoromethyl)imidazo[1,2-a]pyridine-5-carbonitrile]
IC50 [1]: ≤ 100 nM

O=C(CNC(=O)c1cc(Cl)n2c(CC3CCC(F)(F)CC3)c(C(F)(F)F)nc2c1)Nc1ccccc1 [Compound 151, 5-Chloro-3-[(4,4-difluorocyclohexyl)methyl]-N-[2-oxo-2-(phenylamino)ethyl]-2-(trifluoromethyl)imidazo[1,2-a]pyridine-7-carboxamide]
IC50: ≤ 100 nM

Cc1cc(CNC(=O)c2cc(Cl)n3c(CC4CCC(F)(F)CC4)c(C(F)(F)F)nc3c2)[nH]n1 [Compound 152, 5-Chloro-3-[(4,4-difluorocyclohexyl)methyl]-N-[(3-methyl-1H-pyrazol-5-yl)methyl]-2-(trifluoromethyl)imidazo[1,2-a]pyridine-7-carboxamide]
IC50 [1]: ≤ 100 nM

Cc1cc(CNC(=O)c2cc(Cl)n3c(CC4CCC(F)(F)CC4)c(C(F)(F)F)nc3c2)no1 [Compound 154, 5-Chloro-3-[(4,4-difluorocyclohexyl)methyl]-N-[(5-methylisoxazol-3-yl)methyl]-2-(trifluoromethyl)imidazo[1,2-a]pyridine-7-carboxamide]
IC50 [1]: ≤ 100 nM

CC(C)(CO)CNC(=O)c1cc(C#N)n2c(CC3CCC(F)(F)CC3)c(C(F)(F)F)nc2c1 [Compound 155, 5-Cyano-3-[(4,4-difluorocyclohexyl)methyl]-N-(3-hydroxy-2,2-dimethylpropyl)-2-(trifluoromethyl)imidazo[1,2-a]pyridine-7-carboxamide]
IC50: ≤ 100 nM

CN(C)C(C)(C)CNC(=O)c1cc(C#N)n2c(CC3CCC(F)(F)CC3)c(C(F)(F)F)nc2c1 [Compound 156, 5-Cyano-3-[(4,4-difluorocyclohexyl)methyl]-N-[2-(dimethylamino)-2-methylpropyl]-2-(trifluoromethyl)imidazo[1,2-a]pyridine-7-carboxamide]
IC50: ≤ 100 nM

CC(C)(CNC(=O)c1cc(C#N)n2c(CC3CCC(F)(F)CC3)c(C(F)(F)F)nc2c1)COC=O [Compound 157, 3-(5-Cyano-3-[(4,4-difluorocyclohexyl)methyl]-2-(trifluoromethyl)imidazo[1,2-a]pyridine-7-carboxamide)-2,2-dimethylpropyl formate]
IC50: ≤ 100 nM

CC(F)(F)c1nc2cc(C(=O)NC3CCOCC3)cc(C=O)n2c1CC1CCC(F)(F)CC1 [Compound 158, 3-[(4,4-Difluorocyclohexyl)methyl]-2-(1,1-difluoroethyl)-5-formyl-N-(tetrahydro-2H-pyran-4-yl)imidazo[1,2-a]pyridine-7-carboxamide]
IC50: ≤ 100 nM

CC(F)(F)c1nc2cc(C(=O)NC3CCOCC3)cc(C#N)n2c1CC1CCC(F)(F)CC1 [Compound 159, 5-Cyano-3-[(4,4-difluorocyclohexyl)methyl]-2-(1,1-difluoroethyl)-N-(tetrahydro-2H-pyran-4-yl)imidazo[1,2-a]pyridine-7-carboxamide]
IC50: ≤ 100 nM

CC(C)(C)C(=O)CNC(=O)c1cc(C#N)n2c(CC3CCC(F)(F)CC3)c(C(F)(F)F)nc2c1 [Compound 160, 5-Cyano-3-[(4,4-difluorocyclohexyl)methyl]-N-(3,3-dimethyl-2-oxobutyl)-2-(trifluoromethyl)imidazo[1,2-a]pyridine-7-carboxamide]
IC50: ≤ 100 nM

CCOC(=O)C1(NC(=O)c2cc(C#N)n3c(CC4CCC(F)(F)CC4)c(C(F)(F)F)nc3c2)CC1 [Compound 161, Ethyl 1-{5-cyano-3-[(4,4-difluorocyclohexyl)methyl]-2-(trifluoromethyl)imidazo[1,2-a]pyridine-7-carboxamide}cyclopropanecarboxylate]
IC50: ≤ 100 nM

CC(C)(CO)NC(=O)c1cc(C#N)n2c(CC3CCC(F)(F)CC3)c(C(F)(F)F)nc2c1 [Compound 162]
IC50: ≤ 100 nM

CC(C)(Oc1ccccc1)c1c(C(F)(F)F)nc2cc(C(=O)Nc3ccccc3)ccn12 [Compound 163, 3-(2-Phenoxypropan-2-yl)-N-phenyl-2-(trifluoromethyl)imidazo[1,2-a]pyridine-7-carboxamide]
IC50 [1]: ≤ 100 nM

Cc1c(C(=O)NC2CCOCC2)cc(C)n2c(CC3CCC(F)(F)CC3)c(C(F)(F)F)nc12 [Compound 166, 3-[(4,4-Difluorocyclohexyl)methyl]-5,8-dimethyl-N-(tetrahydro-2H-pyran-4-yl)-2-(trifluoromethyl)imidazo[1,2-a]pyridine-7-carboxamide]
IC50: ≤ 100 nM

Cc1c(C(=O)NC2CCOCC2)cc2nc(C(F)(F)F)c(CC3CCC(F)(F)CC3)n2c1C [Compound 167, 3-[(4,4-Difluorocyclohexyl)methyl]-5,6-dimethyl-N-(tetrahydro-2H-pyran-4-yl)-2-(trifluoromethyl)imidazo[1,2-a]pyridine-7-carboxamide]
IC50: ≤ 100 nM

CC(C)c1nc2cc(C(=O)NC3CC(F)(F)C3)cc(C#N)n2c1CC1CCC(F)(F)CC1 [Compound 170, 5-Cyano-N-(3,3-difluorocyclobutyl)-3-[(4,4-difluorocyclohexyl)methyl]-2-isopropylimidazo[1,2-a]pyridine-7-carboxamide]
IC50: ≤ 100 nM

CC(C)c1nc2cc(C(=O)NCC(F)(F)F)cc(C#N)n2c1CC1CCC(F)(F)CC1 [Compound 171, 5-Cyano-3-[(4,4-difluorocyclohexyl)methyl]-2-isopropyl-N-(2,2,2-trifluoroethyl)imidazo[1,2-a]pyridine-7-carboxamide]
IC50: ≤ 100 nM

O=C(NCC(=O)N1CC(F)(F)C1)c1cc(Cl)n2c(CC3CCC(F)(F)CC3)c(C(F)(F)F)nc2c1 [Compound 172, 5-Chloro-N-[2-(3,3-difluoroazetidin-1-yl)-2-oxoethyl]-3-[(4,4-difluorocyclohexyl)methyl]-2-(trifluoromethyl)imidazo[1,2-a]pyridine-7-carboxamide]
IC50: ≤ 100 nM
